# Assay results published in patent US11279708B2, “Amidino- and amino-rocaglates as novel translation inhibitors and anticancer agents” (priority 2019, dated 2022).
# Legend:
# [1] = test system: eIF4A-dependent translation; assay: in vitro translation assay, bicistronic FF/HCV/Ren reporter mRNA in Krebs-2 extracts; assay type: biochemical; conditions: for IC50 / translation inhibition (in words): bicistronic FF/HCV/Ren mRNA; for IC50: FIG. 14/15, read-out: IC50, inhibition of cap-dependent translation (FF relative to REN)
# Method: Structure-Activity Relationships. With a number of amidino-rocaglates and amino-rocaglates in hand, we evaluated their inhibition of eIF4A-dependent translation using an in vitro assay as depicted in FIG. 14, where a bicistronic reporter mRNA was designed for translation in Krebs-2 extracts. In FIG. 14 the following description applies (a) IC50 was determined from fitted sigmoid curves; […] indicates the concentration of compound that inhibits cap-dependent translation by 50%, which was normalized by cap-independent translation. For its determination, the bicistronic reporter FF/HCV/Ren mRNA was used to produce Firefly luciferase (cap-dependent) and Renilla luciferase (cap-independent) in Krebs-2 extracts in the presence of indicated compounds at various concentrations. In particular, translation of Firefly luciferase (FF) is cap-dependent and depends on eIF4A activity; in contrast, translation of Renilla luciferase (REN) utilizes the HCV internal ribosome entry site (IRES) which functions independently of eIF4A. IC50's were determined by the inhibition of FF relative to REN obtained in the presence of compound relative to vehicle controls and normalized to REN as an internal control. […] In accordance with the eIF4A-RNA-rocaglamide (2) co-crystallographic analysis (FIG. 4), the amide carbonyl of 2 interacts with Gln195 of eIF4A as a H-bond acceptor, while the tertiary hydroxyl of 2 serves as a H-bond donor to an RNA base. […] To further verify the hypothesis, amidino-rocaglates (pKa of N—H˜26.7-30.7 in DMSO, strong H-bond donors) and amino-rocaglates (pKa of N—H˜36 to 44 in DMSO, weak H-bond donors) were next evaluated. […] Conversely, benzyl amidine 9e had IC50=60 nM, whereas the methylene tether may allow conformational adjustment to avoid rigid repulsion in the binding pocket.
# The rocaglate collection was also tested in in vitro translation assays using cell-free extracts with a previously described bicistronic mRNA containing the HCV IRES, which is not dependent on eIF4A activity and served as an internal control (FIG. 19C).
# (§1) In Vitro Translation Assays. In vitro translation assays performed in Krebs-2 cell extracts were supplemented with 5 mM MgCl2, 30 mM Tris-HCl (pH 7.5), 1.5 mM ATP, 0.1 mM GTP, 0.6 mM CTP, 10 mM dipotassium creatine phosphate, 80 μg/mL creatine kinase, and 0.04 mM amino acids. The specified mRNA reporters were added to each reaction at a final concentration of 10 ng/μL. The translation reactions were incubated with or without compound for 60 minutes at 30° C. prior to the measurement of luciferase activities.
# (§2) FIGS. 19A-19C. Rocaglate activity profiling. 19A. Assessing eIF4A1:poly r(AG)8 (SEQ ID NO: 2) RNA binding by FP in the presence of 10 μM rocaglate. Values are expressed relative to vehicle controls and data is rank ordered. n=3±SD. 19B. The change in polarization obtained with eIF4A1:poly r(AG)8 (SEQ ID NO: 2) and eIF4A2:poly r(AG)8 (SEQ ID NO: 2) RNA. Pearson r=0.814; p<0.0001. 19C. Inhibition of cap-dependent translation by rocaglates was measured using the indicated mRNA bicistronic reporter (4 ng/ul) in Krebs-2 extracts at a final compound concentration of 2 μM. n=3±SD.
# FIG. 35A-35E are plots showing dose-response curve of FF-HCV-Ren mRNA translation in Krebs extracts with IC50s shown for inhibition of cap-dependent protein synthesis. Values are plotted relative to DMSO controls. n=2 technical replicates performed in duplicate.
# [2] = molecular target: T1, eIF4A1:poly r(AG)8 RNA (Homo sapiens, UniProt P60842); assay: fluorescence polarization (FP) assay, eIF4A1 binding to FAM-labelled RNA; conditions: 500 nM eIF4A1, 10 nM FAM-labelled RNA, screen at 10 μM compound
# T1 construct: His6 (N); made in house; host or cells: E. coli BL21 (DE3)
# Source text: Rocaglates similarly enhance RNA binding of eIF4A1 and eIF4A2. In order to rapidly evaluate the ability of rocaglates to stimulate binding of eIF4A to RNA, a fluorescence polarization (FP) assay using a FAM (fluorescein amidite)-labelled RNA probe (FIG. 18A) was used. […] Due to the high degree of shared amino acid identity between the two paralogs, their apparent similarity with respect to RNA binding activity and response to CR-1-31-B (23), and the fact that eIF4A1 is essential but eIF4A2 is not, eIF4A1 was used in the majority of our subsequent experiments.
# Fluorescence Polarization (FP) Assays. Unless otherwise specified, eIF4A (500 nM) was incubated with 10 nM FAM-labelled RNA for 30 min in FP buffer (14.4 mM HEPES-NaOH (pH 8), 108 mM NaCl, 1 mM MgCl2, 14.4% glycerol, 0.1% DMSO, 2 mM DTT, 1 mM AMPPNP) at room temperature in black low volume 384 well plates (Corning 3820). FP readings were performed on a Pherastar FS microplate reader (BMG Labtech).
# as §2
# FIG. 21. Assessing stimulation of eIF4A1:RNA binding by rocaglates and pateamine. FAM-labelled RNA was incubated in the presence of 500 nM eIF4A1 and the indicated concentrations of compound for 30 min, after which time FP measurements were taken. Limitations in WGD-57-591 availability prevented us from extending the titrations to 100 μM. The change in FP obtained relative to vehicle controls is presented. n=3±SD. FP results of competition assays in which preformed eIF4A1:rocaglate:FAM-poly r(AG)10 complexes were incubated in the presence of poly r(AG)10 (SEQ ID NO: 39) and dissociation measured as a function of time. n=3±SD.
# [3] = test system: cap-dependent translation; assay: in vitro translation of (AG)10- and (UC)10-FF/HCV/Ren mRNA reporters in Krebs-2 extracts; assay type: biochemical; conditions: cap-proximal (AG)10 or (UC)10
# Method: Rocaglates show differing mRNA targeting spectra in translation assays. The in vitro experiments described above investigating the rocaglate-mediated inhibition of cap-dependent translation were performed at a fixed rocaglate concentration (2 μM) using a generic bicistronic mRNA reporter in Krebs-2 cell-free translation extracts (FIG. 19C). To better assess the consequences of eIF4A:polypurine clamping on the initiation process, we designed a series of bicistronic reporters harboring cap-proximal polypurine tracks of varying lengths in their 5′ leader region (FIG. 22A). […] We reasoned that these reporters would provide a sensitized readout for rocaglate-induce clamping of eIF4A at this location.
# We next tested the response of mRNA reporters containing cap-proximal (AG)10 or (UC)10 sequences (FIG. 22A). […] The difference in activity observed between CR-1-31-B (23) and silvestrol 1 was not restricted to cap-proximal polypurine tracks, but also observed with reporters where the polypurine/polypyrimidine tracks were situated 15 nt downstream from the cap (FIGS. 24A and 24B).
# as §1
# FIGS. 23A-23C. The presence of polypurines bases in mRNA 5′ leader regions are not universal predictors of rocaglate-responsiveness. FIG. 23A. Schematic diagram of FF/HCV/Ren mRNA reporters containing cap-proximal (AG) or (UC) dinucleotide repeats. 23B. Firefly and renilla luciferase activity in response to the indicated CR-1-31-B (23) concentrations (relative to DMSO controls) in Krebs-2 extracts programmed with 4 ng/uL of the indicated mRNAs. n=3±SD. 23C. Dose response of the indicated compounds in Krebs-2 extracts programmed with 4 ng/μL of the indicated mRNAs. n=3± SD.
# FIG. 23. Dose-response of (AG)10- and (UC)10-FF/HCV/Ren mRNAs to CMLD011167, hippuristanol and pateamine A in vitro. Firefly and renilla luciferase activity in response to the indicated compound concentrations (relative to DMSO controls) in Krebs-2 extracts programmed with 4 ng/μL of the indicated mRNAs. n=3± SD.
# [4] = test system: HEK 293 cells; assay: in cellula translation of transfected (AG)10- and (UC)10-FF/HCV/Ren mRNA; assay type: cell-based; conditions: compound added 1 h after mRNA transfection, 6 h exposure
# Source text: We next asked if differences in behavior among rocaglates towards the (AG)10- and (UC)10-reporters observed in vitro also extended in cellula (FIG. 26B). This was important since in cells, mRNA transcripts need to compete for components of the translation initiation machinery from a complex cellular mRNA pool and this scenario is difficult to recapitulate in experiments using cell-free extracts. Following mRNA transfections, cells were exposed to compound and luciferase activity determined.
# RNA Transfections. HEK 293 cells were transfected in a 24 well plate with 0.25 μg/well of in vitro synthesized capped m^7GpppG(AG)10-FF/HCV/Ren or m^7GpppG(UC)10FF/HCV/Ren mRNA and 1 h later were exposed to the indicated concentrations of compounds for an additional 6 h. Following this, extracts were prepared using passive lysis buffer (PLB, Promega) and luciferase activity measured on a Berthold Lumt LB 9507 luminometer.
# FIGS. 26A-26B. In cellula activity of rocaglates. 26A. Cytotoxicity of rocaglates towards NIH/3T3 (grey circle) and the NIH/3T3 rocaglate-resistant line, eIF4A^em1JP(redtriangle). Cells were exposed to 40 nM compound for 4 days and viability was measured using the SRB assay. n=3±SD. 26B. Rocaglates show different sequence preferences for inhibiting cap-dependent translation in cellula. HEK 293 cells were transfected with 0.5 μg of in vitro synthesized capped (AG)10-FF/HCV/Ren or (UC)10-FF/HCV/Ren mRNA and 1h later exposed to the indicated concentrations of compounds for an additional 6 h, at which time extracts were prepared and luciferase activity measured. n=3 SD.
# FIG. 28. In cellula dose-response of (AG)10- and (UC)10-FF/HCV/Ren mRNAs to hippuristanol and pateamine. Firefly and renilla luciferase activity in response to the indicated compound concentrations (relative to DMSO controls) following mRNA transfections in 293 cells. n=3±SD.
# T1 sequence (P60842 whole entry, species assumed): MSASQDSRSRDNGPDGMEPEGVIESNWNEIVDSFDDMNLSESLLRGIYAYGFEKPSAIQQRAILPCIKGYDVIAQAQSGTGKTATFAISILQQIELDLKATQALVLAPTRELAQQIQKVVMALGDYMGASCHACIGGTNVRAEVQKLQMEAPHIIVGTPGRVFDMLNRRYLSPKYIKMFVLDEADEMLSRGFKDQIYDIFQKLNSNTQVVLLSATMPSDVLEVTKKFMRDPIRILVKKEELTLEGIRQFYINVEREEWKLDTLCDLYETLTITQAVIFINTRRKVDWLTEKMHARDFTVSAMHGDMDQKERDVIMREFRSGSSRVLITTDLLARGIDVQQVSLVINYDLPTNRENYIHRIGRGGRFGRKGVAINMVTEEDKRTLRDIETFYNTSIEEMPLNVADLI
structure (smiles),measurement,setting,value
COC(=O)[C@@H]1[C@@H](c2ccccc2)[C@]2(c3ccc(OC)cc3)Oc3cc(OC)cc(OC)c3[C@@]23NC(N)=N[C@@]13O [9j],IC50,[1],125 nM
COCCN[C@]12c3c(OC)cc(OC)cc3O[C@@]1(c1ccc(OC)cc1)[C@H](c1ccccc1)C[C@@H]2N [compound 22],translation inhibition (in words),[1],no translation inhibition
COCCN[C@]12c3c(OC)cc(OC)cc3O[C@@]1(c1ccc(OC)cc1)[C@H](c1ccccc1)C[C@@H]2O [compound 20],translation inhibition (in words),[1],no translation inhibition
COC(=O)[C@@H]1[C@@H](c2ccccc2)[C@]2(c3ccc(OC)cc3)Oc3cc(OC)cc(OC)c3[C@@]23NC(C(C)(C)C)=N[C@@]13O [9f],IC50,[1],267 nM
CC(/C=C/C(C)=C/[C@@H]1Cc2nc(cs2)[C@@H](C)C[C@@H](N)CC(=O)O[C@@H](C)C/C(C)=C/C=C\C(=O)O1)=C\CN(C)C [pateamine A],stimulation of eIF4A1:RNA binding (in words),[2],potently induced binding to all RNA substrates tested
same,inhibition of (AG)10 versus (UC)10 reporter in vitro (in words),[3],equally repressed cap-dependent translation from both
same,inhibition of (AG)10 versus (UC)10 reporter in cellula (in words),[4],inhibited both reporters equally
C[C@H]1C[C@@]2(O[C@H]3C[C@H]4[C@@H]5CC[C@H]6C[C@H](O)CC[C@]6(C)[C@H]5[C@@H](O)C[C@]4(C)[C@H]3[C@@]2(C)O)OC1(C)C [hippuristanol],inhibition of (AG)10 versus (UC)10 reporter in vitro (in words),[3],equally repressed cap-dependent translation from both
same,inhibition of (AG)10 versus (UC)10 reporter in cellula (in words),[4],inhibited both reporters equally
CCCCC1=N[C@@]2(O)[C@H](C(=O)OC)[C@@H](c3ccccc3)[C@]3(c4ccc(OC)cc4)Oc4cc(OC)cc(OC)c4[C@]23N1 [9d],IC50,[1],187 nM
COCC1=N[C@@]2(O)[C@H](C(=O)OC)[C@@H](c3ccccc3)[C@]3(c4ccc(OC)cc4)Oc4cc(OC)cc(OC)c4[C@]23N1 [9k],IC50,[1],64 nM
COCCN[C@]12c3c(OC)cc(OC)cc3O[C@@]1(c1ccc(OC)cc1)[C@H](c1ccccc1)[C@@H](C(=O)N(C)C)[C@H]2O [compound 18],translation inhibition (in words),[1],no translation inhibition
COC(=O)[C@@H]1[C@@H](c2ccccc2)[C@]2(c3ccc(OC)cc3)Oc3cc(OC)cc(OC)c3[C@@]23NC(Cc2ccccc2)=N[C@@]13O [9e],IC50,[1],60 nM
COc1ccc([C@@]23Oc4cc(OC)cc(OC)c4[C@@]24NC(C)=N[C@@]4(O)[C@H](C(=O)N(C)OC)[C@H]3c2ccccc2)cc1 [9aa],IC50,[1],59 nM
COc1ccc([C@@]23Oc4cc(OC)cc(OC)c4[C@@]24NC(C)=N[C@@]4(O)[C@H](C(=O)N(C)C)[C@H]3c2ccccc2)cc1 [9z],IC50,[1],63 nM
CONC(=O)[C@H]1[C@@H](O)[C@@]2(O)c3c(OC)cc(OC)cc3O[C@@]2(c2ccc(Br)cc2)[C@@H]1c1ccccc1 [SDS-1-021],inhibition of cap-dependent translation in vitro (in words),[1]; screen at 2 μM compound,the most potent compound
